# Test results taken from US11674959B2, “Methods for identifying and preparing pharmaceutical agents for activating Tie1 and/or Tie2 receptors” (The Johns Hopkins University, priority 2017, dated 2023).
# Experiments:
# [1] = system: STAT3; assay: Western blot of MEC lysates: STAT3 phosphorylation; assay type: cell-based, human; settings: Ang2 and AXT107 treatment
# Procedure: To investigate the effects of the integrin inhibitor AXT107 on Tie2 signaling, confluent monolayers of microvascular endothelial cells (MECs) on fibronectin-coated dishes were treated with various concentrations of AXT107 followed by exposure to the Tie2 ligands Ang1 or Ang2.
# Human dermal microvascular endothelial cells (Lonza) were maintained at 37° C. and 5% CO2 in EBM-2MV medium (Lonza) and used between passages two through seven. Where applicable, cells were serum starved in EBM-2 medium (Lonza) with no supplements. For FITC-Dextran permeability assays phenol red-free media were used to avoid auto-fluorescence. […]
# For Ang1/2 signaling investigations, cell culture dishes (10 cm diameter) were coated with 5 μg/ml fibronectin (FN1; Sigma-Aldrich, St. Louis, Mo.) for two hours at 37° C. […] Specific proteins were identified by Western blot, using the following primary antibodies: Cell Signaling—phospho-Tie2 (Y992) (Cat #: 4221), Tie2 (Cat #: 7403), phospho-Stat3 (Y705) (Cat #: 4113), Stat3 (Cat #: 4904), phospho-Akt (S473) (Cat #: 4058), Akt (Cat #: 9272), phospho-p44/42 MAPK (T202/Y204) (Cat #: 4370), p44/42 MAPK (Cat #: 4695); BD Transduction Laboratories—β1 integrin (Cat #: 610467); Millipore—α5 integrin (Cat #: AB1928) and detected with HRP-conjugated goat anti-rabbit and sheep anti-mouse secondary antibodies (GE healthcare).
# [2] = system: Tie2; assay: Tie2 immunoprecipitation from fractionated MEC lysates, blotted for phospho-Tie2; assay type: cell-based, human; settings: Ang2 with or without AXT107; soluble vs insoluble fractions
# Procedure: Next, experiments were performed to determine whether or not relocation of Tie2 to the insoluble fraction was important for Tie2's activation by Ang2. Tie2 was immunoprecipitated from fractionated MEC lysates exposed to Ang2 with or without AXT107 and then immunoblotted for phospho-Tie2.
# The isolation of Triton X-100 soluble and insoluble fractions was performed using modifications to previously-described procedures (see, e.g., Lampugnani et al., J Cell Biol. 1995; 129(1):203-217). FN1-coated six-well plates were seeded with 2.5×10^6 cells and cultured for forty-eight hours, as described above. The cultures were then serum starved for ninety minutes in EBM-2 media, treated with 100 μM AXT107 or DMSO vehicle, and fifteen minutes with 1 mM sodium vanadate. The cells were then stimulated with either 100 ng/ml VEGFA, 400 ng/ml Ang2, or PBS for fifteen minutes. The plates were then transferred to ice and washed twice with cold dPBS containing Ca^2+ and Mg^2+ and twice with EBM-2 media. The media was then removed and the cells incubated for thirty minutes on ice, at 4° C. in 200 μl of Triton X-100 extraction buffer (10 mM Tris-HCl, pH 7.5; 150 mM NaCl; 2 mM CaCl2; 1% NP-40; 1% […]; and a protease inhibitor cocktail (Cell Signaling, Cat #: 5871)) with occasional agitation. […] Samples were analyzed by western blot as described above. […]
# [3] = system: VEGFR2, cMet, PDGFRβ, and IGF1R; settings: VEGFR2, c-Met, literature; cited from earlier work
sequence,measurement,setting,value
LRRFSTAPFAFIDINDVINF [AXT107],STAT3 phosphorylation,[1],also increased
same,Tie2 phosphorylation by fraction,[2],phosphorylation was observed only in the insoluble fractions of peptide-treated samples
same,Receptor phosphorylation and downstream signals of RTKs,[3],significantly decreases receptor phosphorylation and downstream signals
